Consider two substances from patent US8137991B2, “Methods of reducing angiogenesis of age-related macular degeneration (AMD) or choroidal neovascularization by an anti-carboxyetheylpyrrole (CFP) antibody” (The Cleveland Clinic Foundation, priority 2006, dated 2012).

Assay [1] concerns chick chorioallantoic membrane (CAM). Kind of assay: Chick chorioallantoic membrane (CAM) angiogenesis assay. The note with it: VEGF 20 ng, positive control, 48 hours. It counts as in vivo, chick (white Leghorn embryos).
Protocol: Fertilized 3-day old white Leghorn eggs (CWRU, Squire valley farms) were cracked, and embryos with the yolk intact were placed in 100 mm×20 mm glass bottom Petri dishes. […] CAMs implanted with discs loaded with unmodified dipeptide, HSA, control buffer or with vascular endothelial growth factor (VEGF) were used as negative and positive controls respectively. After 48 hours of incubation, India ink was injected into the vascular system for better visualization of the vessels by a stereomicroscope. Images were captured with a Panasonic CCD camera. Samples were always compared on the same CAM to avoid egg-to-egg variability. For quantitative analysis of vessel density and leakage, CAM images were batch processed using customized macros generated in Image-Pro Plus 5.0 (Media Cybernetics, Silver Spring, Md.). Briefly, a region of interest (ROI) was traced around grafted tissue in each image, each image was then cropped to its ROI, converted to grayscale, and processed using a large spectral filter to enhance the appearance of vasculature whilst omitting presence of larger vessels (determined by filter width). […]
The protein preparations were analyzed for endotoxin and determined to be free of contamination.
In assay [2] the test system is rat cornea (limbal blood vessels). Kind of assay: Rat corneal micropocket assay, angiogenic response to implanted pellets. The note with it: pellet 1 mm from limbus, CEP-HSA 1 μg, CEP-dipeptide 37 ng, dipeptide 41 ng. Type of assay: in vivo, Sprague-Dawley rats.
Protocol: Hydron/sucralfate pellets containing unmodified or CEP modified HSA or dipeptide with or without neutralizing antibodies (monoclonal mouse anti-human VEGF, 1.5 μg, R&D systems (MAB293) or monoclonal anti-CEP antibody (Gu, X., et al. (2003) J. Biol. Chem.), 4 μg) were inserted into corneal micropockets (1 mm from the limbus) of Sprague-Dawley rats. Control mouse IgM, 4 μg (eBioscience, cat. #14-4752) and mouse IgG, 1.5 μg (Southern Biotechnology Inc., cat. #0104-01) antibodies were used in control pellets for comparison with anti-CEP and anti-VEGF antibodies respectively. Corneas were examined daily with the aid of a surgical microscope to monitor angiogenic responses to CEP modified peptide or proteins. […] A positive neovascularization response was recorded only if sustained directional in-growth of capillary sprouts and hairpin loops toward the pellet was observed. A negative response was recorded when either no growth is observed or only an occasional sprout or hairpin loop showing no evidence of sustained growth was detected. […] Angiogenic response was analyzed for peak vascular extension and total skeletal (vascular) length using Image-Pro Plus 5.0 (Media Cybernetics, Silver Spring, Md.). […] The resulting image, a single segmented object representing the overall dimensions of the vascular bed, was analyzed for maximum box-width, i.e. extent of vessel penetration. […]

Take VEGF: in assay [1], the “average skeletal density of CAM vessels” value is around 3.1.

In the case of “acetyl-Gly-Lys-O-methyl ester [dipeptide]”, in assay [2], the “growth of limbal blood vessels towards the pellet” value is on record as “did not induce this effect”.
